Source: US20250161299A1, “ORAL PCLX-001 IN THE TREATMENT OF HUMAN CANCER” (PACYLEX PHARMACEUTICALS INC., priority 2022, published 2025)
Entries after “also recorded” stand apart in the source; their conditions may differ. Read-outs that look alike come from different tables or passages of the source.

How the values were obtained:
[1] = test system: Colon cultured human cancer cells; details: mean among sensitive cell lines, read-out: IC50 mean +/− SD, cited from earlier work
[2] = test system: DLBCL / soft tissue sarcoma in patients; assay: Phase I trial efficacy assessment (CT/PET imaging, Lugano criteria, RECIST); format: in vivo, human
Method: Patients 1 and 2 had baseline cross sectional and PET imaging, and patient 3 had baseline cross sectional imaging. Protocol defined imaging was CT every 2 cycles and PET every 6 cycles or as clinically indicated. Evaluation of response was by the Lugano classification criteria for the evaluation of non-Hodgkin lymphoma, and […] for the evaluation of soft tumors. Computed tomography was performed on patient 2 on two occasions, immediately prior to treatment (pre-treatment scan obtained Oct. 29, 2021) and after two 28-day cycles of oral PCLX-001 at a daily dose of 20 mg by mouth (post-treatment scan obtained Dec. 30, 2021). Both scans were done on the same scanner using the same techniques including the use of intravenous contrast dye. The three pairs of pre and post treatment scans are of the same cross section of the patient, in order to identify a clinical trial target lesion of a liver metastasis in the subcapsular region of segment five of the liver. […] FIG. 2A-4F.

[3] = test system: Pancreas cultured human cancer cells; details: mean among sensitive cell lines, cited from earlier work
[4] = test system: Bruton tyrosine kinase (BTK); details: models of human lymphoma; cited from earlier work
[5] = PK and maximally tolerated dose, daily oral administration, dog
[6] = test system: Lung cultured human cancer cells; details: mean among sensitive cell lines, cited from earlier work; for IC50: read-out: IC50 mean +/− SD
[7] = Animal (GLP) non-clinical safety testing; format: in vivo
Excerpt: PCLX-001 (FIG. 1) is a potent, small molecule inhibitor of human NMT1 and NMT2 proteins.

[8] = test system: Brain cultured human cancer cells; details: second panel, mean among sensitive cell lines, read-out: IC50 mean +/− SD; cited from earlier work
implanted human tumors [9] = assay: Anticancer efficacy in mice bearing implanted human tumors; format: in vivo, mouse; details: in any given experiment
kinases (KINOMEscan) = details: KINOMEscan (Fremont, CA, USA); cited from earlier work
[10] = Phase I trial plasma pharmacokinetics, two-compartment model (PK Solver 2.0); format: in vivo; details: human, oral, 20 mg
Method: A different pharmacokinetic modeling program was used in the publication PK Solver 2.0 freeware (https://www.boomer.org/boomer/software/pksolver.zip; accessed 26 Nov. 2021) was used to determine the single dose pharmacokinetic parameters using a two-compartment model. […] As noted above, non-compartmental pharmacokinetic analysis was performed using Phoenix WinNonlin 8.3 using trapezoidal rule and linear up log down methodology. WinNonlin was allowed to pick optimal terminal phases.
Pharmacokinetic analysis was conducted as described above. […] These parameters are all supportive of a single daily oral dosing schedule for PCLX-001.

[11] = test system: cancer cells (hematologic, lymphoma and solid cancer cell lines); details: tissue culture; hematological and solid cancer cell lines; cited from earlier work
[12] = test system: Melanoma cultured human cancer cells; details: mean among sensitive cell lines, cited from earlier work; for IC50: read-out: IC50 mean +/− SD
implanted human tumors [13] = details: cited from earlier work
[14] = PK and maximally tolerated dose, daily oral administration, mouse; format: in vivo
Method: The allometric scaling is based on toxicity, and the toxicity is that which establishes the Maximally Tolerated Dose (MTD) in animal studies. In mice, one toxicity study established the MTD to be 35 mg/kg. […] It was not expected that, as shown herein, doses markedly lower than 180 mg daily in humans would have anticancer effects.
[…]. Possible explanations for this finding include hysteresis loops (7), and flip-flop pharmacokinetics (7).
Allometric scaling is a means by which PK results from animal studies can be used to predict human drug exposure for a range of drug doses. In this case, allometric scaling was performed using representative values from the PK studies with daily oral PCLX-001 administration for 14 or 28 days in non-human species. These inputs were analyzed with www.truedose.app to predict the Maximally Tolerated Dose we would see in this phase one clinical trial (FIG. 2). […]

in vivo = details: rat, plasma, po
[15] = test system: Bladder cultured human cancer cells; details: mean among sensitive cell lines (EC50<500 nM or IC50<500 nM), cited from earlier work
[16] = PK and maximally tolerated dose, daily oral administration, rat
[17] = test system: Neuroblastoma cultured human cancer cells; details: second panel, mean among sensitive cell lines, read-out: IC50 mean +/− SD; cited from earlier work
[18] = test system: Myeloma cultured human cancer cells; details: first panel, mean among sensitive cell lines, read-out: EC50 mean +/− SD; cited from earlier work
[19] = Phase I trial toxicity assessment (dose limiting toxicities, CTCAE version 5.0); format: in vivo, human; details: for hematopoietic profile and biochemistry / protocol defined dose limiting toxicities: 20 mg oral daily
Method: The subjects were assessed for toxicity using daily diary entries, clinical assessments at baseline, day 8, day 15, day 22, and day 28. Dose limiting toxicities were DLTs defined as the following cycle 1 CTCAE version 5.0 adverse events: Gr 4 platelets, Gr≥3 platelets with bleeding and/or transfusions, Gr 4 ANC for ≥7 days, Gr≥3 febrile neutropenia, and Gr≥3 non-hematological toxicity.

hERG = hERG (Homo sapiens, UniProt Q12809); assay: Preclinical hERG interaction testing
Chain of hERG (Q12809 whole entry): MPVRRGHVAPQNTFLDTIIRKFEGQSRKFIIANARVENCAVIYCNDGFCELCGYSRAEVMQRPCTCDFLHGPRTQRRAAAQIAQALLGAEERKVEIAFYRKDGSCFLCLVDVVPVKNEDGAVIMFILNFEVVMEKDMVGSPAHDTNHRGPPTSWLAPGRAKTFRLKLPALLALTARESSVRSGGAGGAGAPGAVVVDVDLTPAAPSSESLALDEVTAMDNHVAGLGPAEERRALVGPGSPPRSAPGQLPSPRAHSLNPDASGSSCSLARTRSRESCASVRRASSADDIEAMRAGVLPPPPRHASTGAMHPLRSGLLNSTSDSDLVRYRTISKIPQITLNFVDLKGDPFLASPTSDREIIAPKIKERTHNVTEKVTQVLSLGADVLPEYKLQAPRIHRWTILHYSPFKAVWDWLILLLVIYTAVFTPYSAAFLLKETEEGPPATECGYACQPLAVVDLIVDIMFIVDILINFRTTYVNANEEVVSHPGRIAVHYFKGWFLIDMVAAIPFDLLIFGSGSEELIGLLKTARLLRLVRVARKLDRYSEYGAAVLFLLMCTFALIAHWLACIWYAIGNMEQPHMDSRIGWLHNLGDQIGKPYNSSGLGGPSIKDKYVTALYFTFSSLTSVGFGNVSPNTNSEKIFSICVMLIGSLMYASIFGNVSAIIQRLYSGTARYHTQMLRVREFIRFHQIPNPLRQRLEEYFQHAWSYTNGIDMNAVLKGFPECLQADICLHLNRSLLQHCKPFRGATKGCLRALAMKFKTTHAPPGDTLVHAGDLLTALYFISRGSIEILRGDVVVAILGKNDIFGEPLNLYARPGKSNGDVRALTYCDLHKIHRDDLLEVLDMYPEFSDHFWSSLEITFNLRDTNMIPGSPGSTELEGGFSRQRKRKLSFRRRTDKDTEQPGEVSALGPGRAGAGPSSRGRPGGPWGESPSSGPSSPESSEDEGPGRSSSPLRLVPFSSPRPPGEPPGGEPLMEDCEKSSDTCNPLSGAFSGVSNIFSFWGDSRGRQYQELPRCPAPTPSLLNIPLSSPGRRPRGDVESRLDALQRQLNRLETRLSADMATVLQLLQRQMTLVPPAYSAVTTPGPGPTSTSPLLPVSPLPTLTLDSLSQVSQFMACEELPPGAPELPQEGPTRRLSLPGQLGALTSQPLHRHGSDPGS

[20] = first panel, read-out: EC50 mean +/− SD
[21] = second panel, read-out: IC50 mean +/− SD
[22] = Table 1B third line, Patient 115-002-001, Day 15 as printed

For `Cc1c(NS(=O)(=O)c2c(Cl)cc(-c3ccnc(N4CCNCC4)c3)cc2Cl)c(CC(C)C)nn1C` [PCLX-001, 2,6-dichloro-N-(3-isobutyl-1,5-dimethyl-1H-pyrazol-4-yl)-4-(2-(piperazin-1-yl)pyridin-4-yl)benzene sulfonamide], the IC50 ([1]; second panel) is listed as 158 ± 27.4 nM, the IC50 ([1]; third panel) is listed as 210 ± 85.4 nM and the “disease response (Lugano criteria, computed tomography day 28)” value ([2]; Patient 1, refractory relapsed DLBCL, 20 mg oral daily) is listed as “disease progression; also recorded: progression of the volume of lymphoma”. For the same compound, the “response in lymph nodes” value ([2]; Patient 2, DLBCL, 20 mg oral daily) was “progressive disease in lymph nodes”, the “response of hepatic metastatic disease on CT” value ([2]; Patient 2, DLBCL, 20 mg oral daily, about two months) was “marked reduction of volume of hepatic metastatic disease; also recorded: marked tumor response in hepatic metastases; also recorded: marked tumor regression; also recorded: regression of a malignant lesion in the liver” and the response assessment scans ([2]; Patient 3, leiomyosarcoma, after two 28 day cycles) was “progressive disease”. The EC50 [3, 20] was 109 ± 90 nM, the IC50 [3, 21] was 77.7 ± 13.7 nM and the “BTK modification and downstream signaling” value [4] was “profoundly inhibited”. The “Maximally Tolerated Dose daily oral administration” value [5] was 4 mg/kg, the EC50 [6, 20] was 151 ± 88.2 nM and the IC50 ([6]; second panel) was 184 ± 82.8 nM. The IC50 ([6]; third panel) was 154 ± 111 nM, the cardiac conduction [7] was “no cardiac conduction issues” and the IC50 [8] was 153 ± 63.5 nM. The “effective dose relative to the dose that produced mouse toxicity” value (implanted human tumors [9]) was “greater than 50%”, the “off target kinase inhibition” value (kinases (KINOMEscan)) was “no significant off target kinase inhibition” and the AUC(0-inf) ([10]; Table 1B fourth line, Patient 115-002-001, Day 15) was 2640 ng·h/mL. For the same compound, the AUC(0-inf) [10, 22] was 2360 ng·h/mL, the AUC(0-t) [10, 22] was 1700 ng·h/mL and the Cmax [10, 22] was 278 ng/mL. The half-life [10, 22] was 16.4 h, the “inhibition of cancer cell growth in vitro” value [11] was “inhibition of cell growth; also recorded: markedly inhibited” and the EC50 [12, 20] was 134 ± 53.9 nM. The IC50 ([12]; second panel) was 208 ± 99.5 nM, the IC50 ([12]; third panel) was 157 ± 192 nM and the “anticancer activity in mice bearing human cancers” value (implanted human tumors [13]; 10 mg/kg or lower) was “no evident anticancer activity”. For the same compound, the “anti-cancer effects in mice with implanted human tumors” value (implanted human tumors [13]; 35 mg/kg and higher doses) was “had anti-cancer effects”, the “response of human cancers grown in immunodeficient mice” value (implanted human tumors [13]; preclinical studies) was “complete remissions” and the “Maximally Tolerated Dose daily oral administration” value [14] was 35 mg/kg. The Cmax ([14]; in vivo, po) was 46000 ng/mL, the half-life ([14]; in vivo, po) was 1.6 h and the Cmax (in vivo) was 3110 ng/mL. The half-life (in vivo) was 1 h, the EC50 [15, 20] was 155 ± 49.7 nM and the IC50 [15, 21] was 172 ± 79.8 nM. For the same compound, the “Maximally Tolerated Dose daily oral administration” value [16] was 125 mg/kg, the IC50 [17] was 230 ± 183 nM and the EC50 [18] was 144 ± 44.7 nM. For the same compound, the “hematopoietic profile and biochemistry” value ([19]; Patient 1) was “remained normal; also recorded: no evidence of toxicity”, the “protocol defined dose limiting toxicities” value ([19]; Patient 1, 28 day cycle) was “did not experience any dose limiting toxicities; also recorded: no protocol defined dose limiting toxicities” and the “hematopoietic profile and biochemistry” value ([19]; Patient 2) was “remained normal”. The “protocol defined dose limiting toxicities” value ([19]; Patient 2) was “no protocol defined dose limiting toxicities”, the drug related toxicities ([19]; Patient 3, daily PCLX-001, two 28 day cycles) was “No drug related toxicities were identified” and the hERG interaction (hERG) was “no significant hERG interaction”.
